# Experimental data from PubChem BioAssay (NCI).
#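 Values below derive from 48-hour exposures of cells grown in 96-well plates, with endpoints linearly interpolated between the two concentrations bracketing the appropriate inhibition level. GI50 = concentration required for 50% inhibition of growth. TGI is the concentration that stops growth completely.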
# Experiments:
# Test in all cases: NCI tumour cell line growth inhibition, 48 h
# SF-539 CNS = tested on: SF-539 CNS
# DU-145 prostate = tested on: DU-145 prostate
# MOLT-4 leukemia = tested on: MOLT-4 leukemia
# BT-549 breast = tested on: BT-549 breast
# OVCAR-5 ovarian = tested on: OVCAR-5 ovarian
# NCI-H226 lung = tested on: NCI-H226 lung
# NCI-H522 lung = tested on: NCI-H522 lung
# SK-MEL-2 melanoma = tested on: SK-MEL-2 melanoma
# UACC-62 melanoma = tested on: UACC-62 melanoma
# HCT-15 colon = tested on: HCT-15 colon
# TK-10 renal = tested on: TK-10 renal
# MCF7 breast = tested on: MCF7 breast
# UO-31 renal = tested on: UO-31 renal
# OVCAR-4 ovarian = tested on: OVCAR-4 ovarian
# NCI/ADR-RES ovarian = tested on: NCI/ADR-RES ovarian
# COLO 205 colon = tested on: COLO 205 colon
# HCT-116 colon = tested on: HCT-116 colon
# HL-60(TB) leukemia = tested on: HL-60(TB) leukemia
# CCRF-CEM leukemia = tested on: CCRF-CEM leukemia
# HOP-92 NSCLC = tested on: HOP-92 NSCLC
# EKVX NSCLC = tested on: EKVX NSCLC
# PC-3 prostate = tested on: PC-3 prostate
# HT29 colon = tested on: HT29 colon
# SW-620 colon = tested on: SW-620 colon
# SK-MEL-5 melanoma = tested on: SK-MEL-5 melanoma
# HCC-2998 colon = tested on: HCC-2998 colon
# K-562 leukemia = tested on: K-562 leukemia
# A498 renal = tested on: A498 renal
# OVCAR-3 ovarian = tested on: OVCAR-3 ovarian
smiles,measurement,setting,value
C=CC(=O)N1CCN([C@@H](CC2CC2)c2ccc([C@H](C)Nc3ncc4c(n3)N(CC)C(=O)OC4)cc2)CC1,GI50,SF-539 CNS,11.7 µM
same,TGI,SF-539 CNS,24.3 µM
same,GI50,DU-145 prostate,12.7 µM
same,TGI,DU-145 prostate,25.4 µM
same,GI50,MOLT-4 leukemia,4.51 µM
same,TGI,MOLT-4 leukemia,26.4 µM
same,GI50,BT-549 breast,4.7 µM
same,TGI,BT-549 breast,16.6 µM
same,GI50,OVCAR-5 ovarian,16.6 µM
same,TGI,OVCAR-5 ovarian,35.4 µM
same,GI50,NCI-H226 lung,14.1 µM
same,TGI,NCI-H226 lung,34.7 µM
same,GI50,NCI-H522 lung,10.2 µM
same,TGI,NCI-H522 lung,26.1 µM
same,GI50,SK-MEL-2 melanoma,12.6 µM
same,TGI,SK-MEL-2 melanoma,27.4 µM
same,GI50,UACC-62 melanoma,12.1 µM
same,TGI,UACC-62 melanoma,26.1 µM
same,GI50,HCT-15 colon,10.3 µM
same,TGI,HCT-15 colon,25.5 µM
same,GI50,TK-10 renal,9.02 µM
same,TGI,TK-10 renal,23.1 µM
same,GI50,MCF7 breast,6.66 µM
same,TGI,MCF7 breast,24.6 µM
same,GI50,UO-31 renal,10.8 µM
same,TGI,UO-31 renal,26.3 µM
same,GI50,OVCAR-4 ovarian,12.3 µM
same,TGI,OVCAR-4 ovarian,28.4 µM
same,GI50,NCI/ADR-RES ovarian,21.5 µM
same,TGI,NCI/ADR-RES ovarian,> 100 µM
same,GI50,COLO 205 colon,16.9 µM
same,TGI,COLO 205 colon,36 µM
same,GI50,HCT-116 colon,7.67 µM
same,TGI,HCT-116 colon,21.9 µM
same,GI50,HL-60(TB) leukemia,2.28 µM
same,TGI,HL-60(TB) leukemia,12.7 µM
same,GI50,CCRF-CEM leukemia,4.29 µM
same,TGI,CCRF-CEM leukemia,25.2 µM
same,GI50,HOP-92 NSCLC,1.47 µM
same,TGI,HOP-92 NSCLC,8.06 µM
same,GI50,EKVX NSCLC,14.1 µM
same,TGI,EKVX NSCLC,27.6 µM
same,GI50,PC-3 prostate,12 µM
same,TGI,PC-3 prostate,31.4 µM
same,GI50,HT29 colon,17.5 µM
same,TGI,HT29 colon,50.7 µM
same,GI50,SW-620 colon,14.2 µM
same,TGI,SW-620 colon,31.1 µM
same,GI50,SK-MEL-5 melanoma,15.4 µM
same,TGI,SK-MEL-5 melanoma,30 µM
same,GI50,HCC-2998 colon,13 µM
same,TGI,HCC-2998 colon,28 µM
same,GI50,K-562 leukemia,5.34 µM
same,TGI,K-562 leukemia,69.5 µM
same,GI50,A498 renal,11.2 µM
same,TGI,A498 renal,23.6 µM
same,GI50,OVCAR-3 ovarian,12 µM
